Data from US8927462B2, “Method for identifying HLA complexes associated with adverse drug reactions” (Academia Sinica, priority 2010, dated 2015).

Experiments:
HLA-B*1501 = target: T1, HLA-B*1501 (Homo sapiens, UniProt P01889, A329T/A93T/A95T/C349S/D201E/D98Y/E187L/E204Q/E69M/E70A/K202T/N87E/Q94N/R155S/R180W/S121R/S35A/S48A/V306I/V36M/Y140S/Y91S); assay: Surface plasmon resonance (SPR) binding to soluble HLA-B*1501; details: for binding to other HLA-B molecules (SPR): HLA-B*1501: at therapeutic concentrations
T1 construct: Complexes containing soluble HLA-B*1501 or 1503 and β2-microglobulin were prepared following the same procedure described above; made in house

HLA-B*1503 = HLA-B*1503 (Homo sapiens, UniProt P01889, A329T/A93T/A95T/C349S/D201E/D98Y/E187L/E204Q/K202T/N87E/Q94N/R155S/R180L/S121R/S35A/V306I/V36M/Y140S/Y91S); assay: Surface plasmon resonance (SPR) binding to soluble HLA-B*1503; details: for binding to other HLA-B molecules (SPR): HLA-B*1503: at therapeutic concentrations
HLA-B*4001 = HLA-B*4001 (Homo sapiens, UniProt P01889, A65T/A93T/A95T/D138N/D98Y/E176V/E69K/N87E/Q56L/Q94N/R180L/S121R/S35A/S48T/T167S/V36M/W171L/Y33H/Y91S); assay: Surface plasmon resonance (SPR) binding to soluble HLA-B*4001; details: for binding to other HLA-B molecules (SPR): HLA-B*4001: at therapeutic concentrations
HLA-B*5101 = HLA-B*5101 (Homo sapiens, UniProt P01889, A329T/A93T/A95T/C349S/D138N/D201E/D98Y/E187L/E204Q/E69T/G107R/I218V/K202T/L105A/L119W/N104I/Q94N/R106L/R155S/R180L/S101N/S121T/S35A/S48A/V306I/V36M/Y195H/Y91F); assay: Surface plasmon resonance (SPR) binding to soluble HLA-B*5101; details: for binding to other HLA-B molecules (SPR): HLA-B*5101: at therapeutic concentrations
[1] = test system: CBZ-specific CD8+ T cells; assay: [3H] thymidine incorporation assay, T cell proliferation with fixed and non-fixed B-LCLs; format: cell-based, human; details: fixed and unfixed autologous B-LCL; FIG. 4
Experimental: (§1) PBMC were isolated by the density-gradient Ficoll-Paque method according to the manufacturer's instructions (GE Healthcare Company, Piscataway, N.J., USA). […] After 3˜4 times of restimulation, CD8^+ T cells were sorted out for further functional assays. T cells were cultured with RPMI-HS medium consisted of RPMI 1640 supplemented with 10% heat-inactivated human type AB serum (Labquid Inc, Ontario, Calif.) and 50 U/ml IL-2 (R&D Systems, Minneapolis, Minn., USA). EBV-transformed B-cell lines (B-LCL) were generated by transforming the donor's PBMCs with supernatant from the EBV-producing cell lines B9-85.
Irradiated APCs (10^3) and T cells (10^4) were incubated with a test compound for 48 hours, and the proliferation of T cells was measured by incorporation of [^3H] thymidine. For fixation assay, autologous B-LCLs were pretreated with 0.05% paraformaldehyde for 30 s. For pulsing experiments, drugs were preincubated with B-LCLs overnight. B-LCLs were washed repeatedly to remove noncovalently bound drug, and then incubated with T cells.

[2] = test system: peptides bound to the soluble HLA-B*1502-β2-microglobulin complex; assay: Analysis of HLA-B-bound drug-modified peptides by liquid chromatography-tandem mass spectrometry (C1R-HLA-B*1502 clone treated with CBZ); parameters: species or system human; details: C1R-HLA-B*1502 culture, 50 μg/mL for 48 hours; LC-tandem MS of <3-kDa fraction
autologous B-LCL cells = assay: 51Cr-release cytotoxicity assay, CBZ-specific CD8+ T cells against drug-pulsed autologous B-LCL; format: cell-based, human; details: B-LCL pulsed with 25 μg/ml drug overnight at 37° C. and washed out before the cytotoxicity assay; FIG. 3
Experimental: as §1
Irradiated APCs (10^3) and T cells (10^4) were incubated with a test compound for 48 hours, and the proliferation of T cells was measured by incorporation of [^3H] thymidine. For fixation assay, autologous B-LCLs were pretreated with 0.05% paraformaldehyde for 30 s. For pulsing experiments, drugs were preincubated with B-LCLs overnight. […]
B-LCLs, preincubated with IFN-γ (R&D Systems, Minneapolis, Minn., USA) overnight, were first incubated with ^51Cr (Perkin Elmer, Waltham, Mass., USA) for 1 hr at 37° C. […] Radioactivity in the supernatant from each wells was measured by a Topcount (Packard Biosciences, Meriden, Conn., USA). The percentage of specific lysis was calculated as follows: (^51Cr release in the test well−spontaneous ^51Cr release)/(maximum ^51Cr release−spontaneous ^51Cr release).

SMILES | binding to other HLA-B molecules (SPR): HLA-B*1501 (HLA-B*1501) | binding to other HLA-B molecules (SPR): HLA-B*1503 (HLA-B*1503) | binding to other HLA-B molecules (SPR): HLA-B*4001 (HLA-B*4001) | binding to other HLA-B molecules (SPR): HLA-B*5101 (HLA-B*5101) | presentation by B-LCL and activation (proliferation) of CBZ-specific CD8+ T cells [1] | covalent binding of drug to HLA-B*1502-bound peptides [2] | response (specific lysis) of CBZ-specific CD8+ T cells to pulsed autologous B-LCL (autologous B-LCL cells) | binding to HLA-B*1501 (SPR) (HLA-B*1501; FIG. 6) | binding to HLA-B*1503 (SPR) (HLA-B*1503; FIG. 6) | binding to HLA-B*4001 (SPR) (HLA-B*4001; FIG. 6) | binding to HLA-B*5101 (SPR) (HLA-B*5101; FIG. 6)
CC[C@@H](C(N)=O)N1CCCC1=O [LEV, levetiracetam] | did not bind | did not bind | did not bind | did not bind | – | – | – | – | – | – | –
NCC1(CC(=O)O)CCCCC1 [GAB, gabapentin] | did not bind | did not bind | did not bind | did not bind | negative results | – | – | – | – | – | –
CC1(C)O[C@@H]2[C@@H](CO[C@@]3(COS(N)(=O)=O)OC(C)(C)O[C@@H]23)O1 [TOP, topiramate] | did not bind | did not bind | did not bind | did not bind | – | – | – | – | – | – | –
NC(=O)N1c2ccccc2C=Cc2ccccc21 [CBZ, carbamazepine] | – | – | – | – | able to be presented by both fixed and unfixed autologous B-LCL and activated | does not covalently bind to peptides | none of the CBZ-specific CD8^+ T cells responded | neither CBZ nor its seven analogs (see the Compounds section above) binds | neither CBZ nor its seven analogs (see the Compounds section above) binds | did not bind | did not bind
